For orientation: melting point means the temperature of the solid-liquid transition. Broadly, the EC50 is the concentration at which the effect is half-maximal.

Data on 26 compounds can be found in US8748608B2, “4-phenylpiperazine derivatives with functionalized linkers as dopamine D3 receptor selective ligands and methods of use” (The United States of America as Represented by the …, priority 2007, dated 2014).

Structures can show the parent of a compound that is named as a salt. Where two headings read alike, the source gives them in different places.

The target of data set [1] is human dopamine D2-long (D2) receptor (Homo sapiens (Human), UniProt P14416). In words: Human D2-like receptor competition binding in HEK cells, D2. Particulars: hD2L. From the text:
(§1) Human dopamine D2-long (D2) and D3 (D3) receptors were expressed in HEK cells. In brief, stably transfected HEK cells expressing the human D2-long and the D3 dopamine receptor were developed using the pIRES bicistronic expression vector (CLONTECH; Palo Alto, Calif.). […] For comparison, human dopamine D4 (D4) receptors were obtained from HEK 293 cells stably transfected with a PCR product of a human cDNA coding for the D4.4 form of the human D4 dopamine receptor.
(§2) The procedures to determine the binding affinities at the human dopamine D2-like receptors, the binding affinities at the serotonin 5HT1A, 5HT2A and 5HT2c receptors and functional mitogenesis assay are known in the art. […] Both of these references are incorporated by reference.

Data set [2] addresses human dopamine D3 receptor (Homo sapiens (Human), UniProt P35462). Briefly: Human D2-like receptor competition binding in HEK cells, D3. The settings on record: for D2/D3: ratio of Ki at D2 over Ki at D3.
From the text: as §1, §2

Data set [3] has as its target human D4.4 dopamine receptor (Homo sapiens (Human), UniProt P21917). Briefly: Human D2-like receptor competition binding in HEK cells, D4. Particulars: for Ki: HEK 293 cells, hD4.4; for D4/D3 Ki ratio: head printed D4/D2, values correspond to D4 Ki over D3 Ki.
From the text: as §1, §2

In data set [4] the target is human dopamine D3 receptors in CHO cells (Homo sapiens (Human), UniProt P35462). In words: D3 stimulation of mitogenesis (agonist assay). Type of data set: cell-based. Particulars: CHOp cells; for EC50: read-out: partial agonist activity: EC50, D3 (converted). As for the experimental part: The cells were incubated at 37° C. in α-MEM with 10% FBS, 0.05% penicillin-streptomycin, and 200 μg/mL of G418. After 48 hours, the cells were rinsed twice with serum-free α-MEM and incubated for 24 hours at 37° C. In the functional assay for agonism, the medium was removed and replaced with 90 μl of serum-free α-MEM and 10 μl of test compound in sterile water; in the antagonist assay, the test compound was diluted in sterile water plus 30 nM quinpirole. After another 24-hour incubation at 37° C., 0.25 μCi of [^3H]thymidine was added to each well and the plates were further incubated for 2 hours at 37° C. The cells were then trypsinized, and the plates were filtered and counted as usual in the art. Quinpirole was run on every plate as an internal standard.
Chain of human dopamine D3 receptors in CHO cells (P35462 whole entry): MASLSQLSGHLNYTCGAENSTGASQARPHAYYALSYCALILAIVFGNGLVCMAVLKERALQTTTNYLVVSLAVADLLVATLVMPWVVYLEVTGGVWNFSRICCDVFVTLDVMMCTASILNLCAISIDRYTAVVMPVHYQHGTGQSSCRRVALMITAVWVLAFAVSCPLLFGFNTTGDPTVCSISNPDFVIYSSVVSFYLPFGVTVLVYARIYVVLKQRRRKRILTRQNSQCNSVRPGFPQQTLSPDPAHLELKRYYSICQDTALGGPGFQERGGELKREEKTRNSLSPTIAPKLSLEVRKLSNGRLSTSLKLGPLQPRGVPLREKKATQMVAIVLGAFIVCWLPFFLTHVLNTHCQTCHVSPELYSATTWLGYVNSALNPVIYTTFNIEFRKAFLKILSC
(§3) The procedures to determine the binding affinities at the human dopamine D2-like receptors, the binding affinities at the serotonin 5HT1A, 5HT2A and 5HT2c receptors and functional mitogenesis assay are known in the art. See J. Med. Chem. 2005, 48, 839-848. See also, NIDA Research Monograph #178, Proceedings of the College of Drug Dependence, p. 440-466, 1998. Both of these references are incorporated by reference.

Data set [5] concerns the target serotonin 5HT1A receptor (Homo sapiens (Human), UniProt P08908). Briefly: Serotonin receptor binding, 5HT1A. The settings on record: ratio of affinities.
From the text: as §3

The target of data set [6] is serotonin 5HT2A receptor (Homo sapiens (Human), UniProt P28223). Briefly: Serotonin receptor binding, 5HT2A. The settings on record: ratio of affinities.
Chain of serotonin 5HT2A receptor (P28223 whole entry): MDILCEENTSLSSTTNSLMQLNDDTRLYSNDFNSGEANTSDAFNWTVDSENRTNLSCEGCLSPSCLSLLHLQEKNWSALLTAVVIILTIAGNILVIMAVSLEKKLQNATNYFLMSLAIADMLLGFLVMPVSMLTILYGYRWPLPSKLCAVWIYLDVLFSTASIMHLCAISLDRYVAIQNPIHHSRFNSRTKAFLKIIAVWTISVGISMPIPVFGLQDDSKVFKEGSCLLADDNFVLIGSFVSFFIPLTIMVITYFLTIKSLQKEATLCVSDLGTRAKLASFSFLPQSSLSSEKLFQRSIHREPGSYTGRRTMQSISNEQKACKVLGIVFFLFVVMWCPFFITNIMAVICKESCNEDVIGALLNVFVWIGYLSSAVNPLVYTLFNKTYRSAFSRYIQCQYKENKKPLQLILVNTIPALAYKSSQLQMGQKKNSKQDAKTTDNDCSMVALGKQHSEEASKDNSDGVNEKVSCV
From the text: as §2

Data set [7] concerns the target serotonin 5HT2c receptor (Homo sapiens (Human), UniProt P28335). Briefly: Serotonin receptor binding, 5HT2c. Particulars: ratio of affinities, 5HT2c over D3.
From the text: as §2

The mark [8] stands for this setting: HEK cells, hD3, read-out: D3 Ki.
Where [9] appears, read: Table 3, unit inferred, with spread, read-out: D3 binding affinity.

Chain of human dopamine D3 receptor (P35462 whole entry): as the sequence (P35462 whole entry) above
Chain of human dopamine D2-long (D2) receptor (P14416 whole entry): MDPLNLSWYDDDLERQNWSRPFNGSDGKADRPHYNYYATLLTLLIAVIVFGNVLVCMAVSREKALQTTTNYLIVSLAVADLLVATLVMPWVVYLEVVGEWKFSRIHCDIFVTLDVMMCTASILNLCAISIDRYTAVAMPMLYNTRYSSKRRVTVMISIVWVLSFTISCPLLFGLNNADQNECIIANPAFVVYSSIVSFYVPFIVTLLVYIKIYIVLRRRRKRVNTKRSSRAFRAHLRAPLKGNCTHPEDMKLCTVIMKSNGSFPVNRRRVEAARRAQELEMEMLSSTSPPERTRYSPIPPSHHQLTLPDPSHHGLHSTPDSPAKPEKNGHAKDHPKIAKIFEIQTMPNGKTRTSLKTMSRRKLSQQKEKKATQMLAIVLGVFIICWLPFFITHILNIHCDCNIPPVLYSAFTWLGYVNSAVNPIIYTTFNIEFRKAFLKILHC
Chain of human D4.4 dopamine receptor (P21917 whole entry): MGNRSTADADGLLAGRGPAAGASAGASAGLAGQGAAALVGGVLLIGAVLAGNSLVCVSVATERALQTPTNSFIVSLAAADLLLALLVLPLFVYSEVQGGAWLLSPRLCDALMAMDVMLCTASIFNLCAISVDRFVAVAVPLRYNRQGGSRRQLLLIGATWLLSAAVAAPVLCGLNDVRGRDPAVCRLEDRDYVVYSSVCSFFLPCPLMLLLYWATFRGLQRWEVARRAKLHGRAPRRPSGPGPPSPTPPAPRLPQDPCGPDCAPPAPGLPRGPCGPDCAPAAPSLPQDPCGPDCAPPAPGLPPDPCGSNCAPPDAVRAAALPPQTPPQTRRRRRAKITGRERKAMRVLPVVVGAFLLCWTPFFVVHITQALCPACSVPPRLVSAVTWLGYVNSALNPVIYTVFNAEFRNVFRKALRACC
Chain of serotonin 5HT2c receptor (P28335 33-458): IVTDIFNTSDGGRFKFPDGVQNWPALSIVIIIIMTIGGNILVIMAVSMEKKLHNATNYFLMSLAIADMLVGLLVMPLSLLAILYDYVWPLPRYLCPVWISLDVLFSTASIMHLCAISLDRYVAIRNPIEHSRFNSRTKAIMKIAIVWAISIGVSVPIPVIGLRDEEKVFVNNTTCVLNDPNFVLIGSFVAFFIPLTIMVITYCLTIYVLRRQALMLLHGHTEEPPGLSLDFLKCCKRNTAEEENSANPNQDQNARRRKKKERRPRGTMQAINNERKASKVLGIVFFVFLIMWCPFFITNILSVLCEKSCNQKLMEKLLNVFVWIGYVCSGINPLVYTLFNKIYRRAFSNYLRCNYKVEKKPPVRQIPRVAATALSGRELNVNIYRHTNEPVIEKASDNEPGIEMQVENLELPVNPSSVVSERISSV
Chain of serotonin 5HT1A receptor (P08908 whole entry): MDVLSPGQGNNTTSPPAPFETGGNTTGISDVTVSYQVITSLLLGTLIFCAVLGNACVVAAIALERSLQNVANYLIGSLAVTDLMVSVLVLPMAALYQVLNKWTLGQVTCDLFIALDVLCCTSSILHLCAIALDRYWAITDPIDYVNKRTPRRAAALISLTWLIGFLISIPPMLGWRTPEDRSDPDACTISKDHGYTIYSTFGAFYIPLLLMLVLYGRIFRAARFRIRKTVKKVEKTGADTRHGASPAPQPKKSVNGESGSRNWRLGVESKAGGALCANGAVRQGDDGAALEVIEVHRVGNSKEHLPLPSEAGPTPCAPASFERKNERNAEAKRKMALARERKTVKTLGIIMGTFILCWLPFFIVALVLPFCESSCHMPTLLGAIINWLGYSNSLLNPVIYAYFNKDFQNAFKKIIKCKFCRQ

Compound `COc1ccccc1N1CCN(CCCCNC(=O)c2ccc3c(c2)Cc2ccccc2-3)CC1` (as salt: hydrochloride) [Compound 7, N-(4-(4-(2-Methoxyphenyl)piperazin-1-yl)butyl)-9H-fluorene-2-carboxamide] came in with a melting point of 208 to 210 °C.
On the same count and under the same terms, then `COc1ccccc1N1CCN(C/C=C/CNC(=O)c2ccc(-c3ccccn3)cc2)CC1` (as salt: hydrochloride) [Compound 14, N-(4-(4-(2-Methoxy-phenyl)-piperazin-1-yl)-trans-but-2-enyl)-4-pyridin-2-yl-benzamide], with 168 to 170 °C; and `COc1ccccc1N1CCN(C/C=C/CNC(=O)c2ccc3c(c2)Cc2ccccc2-3)CC1` (as salt: hydrochloride) [Compound 15, N-(4-(4-(2-methoxyphenyl)piperazin-1-yl)-trans-but-2-enyl)-9H-fluorene-2-carboxamide], with 224 to 226 °C.
The same measure, in the same setting: then `O=C(NC/C=C/CN1CCN(c2cccc(Cl)c2Cl)CC1)c1ccc(-c2cccc(=O)[nH]2)cc1` (as salt: oxalate) [Compound 9, N-(4-(4-(2,3-Dichloro-phenyl)-piperazin-1-yl)-trans-but-2-enyl)-4-(6-oxo-1,6-dihydro-pyridin-2-yl)-benzamide], with 153 to 154 °C; and `Cc1cccc(-c2ccc(C(=O)NC/C=C/CN3CCN(c4cccc(Cl)c4Cl)CC3)cc2)n1` (as salt: oxalate) [Compound 10, N-(4-(4-(2,3-Dichloro-phenyl)-piperazin-1-yl)-trans-but-2-enyl)-4-(6-methyl-pyridin-2-yl)-benzamide], with 125 to 126 °C; and `O=C(NC/C=C/CN1CCN(c2cccc(Cl)c2Cl)CC1)c1ccc(-c2cccc[n+]2[O-])cc1` (as salt: oxalate) [Compound 12, N-(4-(4-(2,3-Dichloro-phenyl)-piperazin-1-yl)-trans-but-2-enyl)-4-(pyridin-N-oxide-2-yl)-benzamide], with 153 to 154 °C.
Still for that read-out and setting: for `O=C(NCCC(O)CN1CCN(c2cccc(Cl)c2Cl)CC1)c1ccc2c(c1)Cc1ccccc1-2` (stereo not shown) (as salt: oxalate) [Compound 17] the value was 188 to 190 °C.
In the case of `O=C(NC/C=C/C[N+]1([O-])CCN(c2cccc(Cl)c2Cl)CC1)c1ccc(-c2ccccn2)cc1` [Compound 13, 4-(2,3-Dichlorophenyl)-1-(4-(4-(pyridin-2-yl)benzamido)-trans-but-2-enyl)-piperazine 1-oxide], the results for the Ki in data set [1] and in data set [2] (setting [8]) were 1160 nM and 49.2 nM, respectively. The D2/D3 in data set [2] amounted to 24.
As to `O=C(NCCC(O)CN1CCN(c2cccc(Cl)c2Cl)CC1)c1ccc2c(c1)Cc1ccccc1-2` (stereo not shown) [Compound 17], the Ki in data set [1] was 319 nM; in data set [2] (setting [8]) it was 1.8 nM; in data set [2] (setting [9]), 1.8 nM; in data set [3], 16400 nM. In data set [2], the D2/D3 is given as 177. Also, the “D4/D3 Ki ratio” value in data set [3] was determined as 9110. Moreover, in data set [4], the “partial agonist activity: % stimulation, D3” value was found to be 26%. Further, the EC50 in data set [4] is 42 ± 1.3 nM. Further, the 5HT1A/D3 in data set [5] was found to be 1006. Besides, in data set [6], the 5HT2A/D3 amounted to 303. In addition, the 5HT2c/D in data set [7] is given as 1572.
Take `COc1ccccc1N1CCN(CC(O)CCNC(=O)c2ccc3c(c2)Cc2ccccc2-3)CC1` (stereo not shown) [Compound 19, N-(3-Hydroxy-4-(4-(2-methoxyphenyl)piperazin-1-yl)-butyl)-9H-fluorene-2-carboxamide]: the Ki is 249 nM in data set [1], 1.8 nM in data set [2] (setting [8]) and 1230 nM in data set [3]. In addition, the D2/D3 in data set [2] was 138. In addition, the “D4/D3 Ki ratio” value in data set [3] worked out at 683.
`CC(=O)OC(CCNC(=O)c1ccc(-c2ccccn2)cc1)CN1CCN(c2cccc(Cl)c2Cl)CC1` (stereo not shown) [Compound 20, 1-(4-(2,3-Dichlorophenyl)piperazin-1-yl)-4-(4-(pyridin-2-yl)-benzamido)-butan-2-yl acetate]: the Ki in data set [1] was 134 nM; in data set [2] (setting [8]) it was 11.7 nM; in data set [2] (setting [9]), 11.7 ± 1 nM. For the same compound, the D2/D3 in data set [2] is 11. Besides, the “partial agonist activity: % stimulation, D3” value in data set [4] was found to be 47%. For the same compound, the EC50 in data set [4] was 3.9 ± 1.4 nM. The 5HT1A/D3 in data set [5] is listed as 10. The 5HT2A/D3 in data set [6] is 7. For the same compound, in data set [7], the 5HT2c/D came to 7.
Consider `O=C(NCC(O)CCN1CCN(c2cccc(Cl)c2Cl)CC1)c1ccc2c(c1)Cc1ccccc1-2` (stereo not shown) [Compound 22, N-(4-(4-(2,3-Dichlorophenyl)piperazin-1-yl)-2-hydroxybutyl)-9H-fluorene-2-carboxamide], for which the Ki was 84 nM in data set [1] and 2.5 nM in data set [2] (setting [8]). Moreover, the D2/D3 in data set [2] was 34.
The like results for `COc1ccccc1N1CCN(CCC(O)CNC(=O)c2ccc3c(c2)Cc2ccccc2-3)CC1` (stereo not shown) [Compound 23, N-(4-(4-(2-Methoxyphenyl)piperazin-1-yl)-2-hydroxybutyl)-9H-fluorene-2-carboxamide] were, in that order, 68.4 nM, 1.3 nM and 53.
As for `COc1ccccc1N1CCN(CC(O)CCNC(=O)c2cc3ccccc3[nH]2)CC1` (stereo not shown) [Compound 35], the Ki worked out at 249 nM in data set [1], 1.37 nM in data set [2] (setting [8]) and 1920 nM in data set [3]. Also, the D2/D3 in data set [2] is listed as 181. Also, the “D4/D3 Ki ratio” value in data set [3] amounted to 1401.
On to `O=C(NCC(O)CCN1CCN(c2cccc(Cl)c2Cl)CC1)c1cc2ccccc2[nH]1` (stereo not shown) [Compound 36], for which the Ki turned out to be 28.4 nM in data set [1] and 0.26 nM in data set [2] (setting [8]). In addition, the D2/D3 in data set [2] came out at 109.
The like results for `COc1ccccc1N1CCN(CCC(O)CNC(=O)c2cc3ccccc3[nH]2)CC1` (stereo not shown) [Compound 37] were, in that order, 52.5 nM, 0.5 nM and 105.
For `CCCOc1ccccc1N1CCN(CC(O)CCNC(=O)c2cc3ccccc3[nH]2)CC1` (stereo not shown) [Compound 38], in that order: 47.1 nM, 62.1 nM and 1.
For `COc1ccccc1N1CCN(CC(O)CCNC(=O)c2cc3ccccc3s2)CC1` (stereo not shown) [Compound 39], in that order: 337 nM, 4.6 nM and 73.
For the compound `O=C(NCCC(O)CN1CCN(c2cccc(Cl)c2Cl)CC1)c1cc2ccccc2o1` (stereo not shown) [Compound 42], the Ki in data set [1] came out at 185 nM; in data set [2] (setting [8]) it was 0.98 nM. The D2/D3 in data set [2] is reported as 188.
For `COc1ccccc1N1CCN(CC(O)CCNC(=O)c2cc3ccccc3o2)CC1` (stereo not shown) [Compound 43], in that order: 233 nM, 5.4 nM and 43.
Consider `COc1ccccc1N1CCN(CC(O)CCNC(=O)c2cc3cc(I)ccc3o2)CC1` (stereo not shown) [Compound 44], for which the figures for the Ki in data set [1] and in data set [2] (setting [8]) were 158 nM and 2.2 nM, respectively. For the same compound, the D2/D3 in data set [2] is listed as 71.
With `O=C(NCCC(O)CN1CCN(c2cccc(Cl)c2Cl)CC1)c1cc2cc(I)ccc2o1` (stereo not shown) [Compound 45], the Ki came to 697 nM in data set [1] and 3.5 nM in data set [2] (setting [8]). In addition, the D2/D3 in data set [2] worked out at 200.
For `O=C(NCCC(O)CN1CCN(c2cccc(Cl)c2Cl)CC1)c1cc2cc(F)ccc2o1` (stereo not shown) [Compound 46], in that order: 245 nM, 1.6 nM and 149.
With `COc1ccccc1N1CCN(CC(O)CCNC(=O)c2cc3cc(F)ccc3o2)CC1` (stereo not shown) [Compound 47], the Ki in data set [1] was determined as 180 nM; in data set [2] (setting [8]) it was 0.65 nM. The D2/D3 in data set [2] is 276.
Consider `COc1ccc2oc(C(=O)NCCC(O)CN3CCN(c4cccc(Cl)c4Cl)CC3)cc2c1` (stereo not shown) [Compound 48], for which the Ki in data set [1] came to 244 nM; in data set [2] (setting [8]) it was 1.3 nM. In addition, in data set [2], the D2/D3 came out at 185.
For `COc1ccc2oc(C(=O)NCCC(O)CN3CCN(c4ccccc4OC)CC3)cc2c1` (stereo not shown) [Compound 49], in that order: 174 nM, 1 nM and 172.
